# Laboratory results reported in paper PMC9268591, “Anti-Inflammatory, Analgesic and Antioxidant Potential of New (2S,3S)-2-(4-isopropylbenzyl)-2-methyl-4-nitro-3-phenylbutanals and Their Corresponding Carboxylic Acids through In Vitro, In Silico and In Vivo Studies” (Molecules, 2022).
# “And” between values parts separate entries of the source, which are not always exact repeats. Equal entries are not always repeated. Marks after values point to notes of the source that are not given here.
# Tests used:
# mice [1] = experiment: Hot plate test; set-up: species or system Swiss albino mice; settings: mouse, in vivo
# mice [2] = experiment: Formalin-induced paw-licking test; settings: 5 mg/kg i.p.
# Protocol: Swiss albino mice of both sexes with an average weight of 30 to 35 g were obtained from the respective section of NIH (National Institute of Health) Islamabad, Pakistan.
# The early phase was initially five minutes, while the late phase was 15-30 min. In both the phases, the mice were under observation for licking. As per the protocols, naloxone (2 mg/kg), indomethacin (10 mg/kg) and morphine (5 mg/kg) were used [28].
# albino mice [3] = experiment: Carrageenan-induced inflammation; format: in vivo, Swiss albino mice; settings: standard aspirin (100 mg/kg in method)
# Protocol: After the acute toxicity studies, the carrageenan-induced inflammation assay was performed on the compounds having a safety profile within limit. Forty (40) albino mice of both sexes were alienated into five different groups, with eight mice in each group. Group I was tagged as the negative control group and was administered dimethylsulfoxide (10 mL/kg, 10% v/v) and phosphate buffer (150 µL). Group II was tagged as the standard/positive control group and received a dose of aspirin (100 mg/kg in 0.9% normal saline). The remaining groups (III, IV and V) were tagged as experimental groups and received synthesized compounds (25, 50 and 100 mg/kg in DMSO) and Tween-80 in normal saline. After half an hour, carrageenan suspension (0.05 mL, 1% w/v in saline) was injected into the animals. After the injection of the irritant/carrageenan, the inflammation in the paws was measured by a plethysmometer in intervals (1 to 5 h). The inflammation in the paws of animals in different groups was compared with that of the vehicle, and the percent anti-inflammatory activities were recorded as per the standard method.
# albino mice [4] = experiment: Acetic acid induced writhing test; format: in vivo, Swiss albino mice; settings: standard drug 10 mg/kg
# Protocol: The acetic induced analgesic assay on the compounds FM10 and FM12 was performed to determine the role of the peripheral pathway. The albino mice of both sexes were divided into two groups. Compounds FM10 and FM12 were administered to both the groups in doses of 25 and 50 mg/kg. After 1 h, acetic acid was injected intraperitoneally in the strength of 10 mL/kg. The negative control was Tween 80 1% solution in the strength of 10 mL/kg. […] The activities in animals were determined from the number of stretchings and writings.
compound,measurement,setting,value
CN1CC[C@]23c4c5ccc(O)c4O[C@H]2[C@@H](O)C=C[C@H]3[C@H]1C5 [Morphine],Reaction time on hot plate,mice [1],12.88 ± 0.26 min and 12.31 ± 0.62 min and 11.86 ± 0.87 min
same,"Percent (%) inhibition, 0–5 min",mice [2]; early phase,88.64 *** %
same,Time spent (licking) 0–5 min,mice [2]; early phase,6.50 ± 0.78 s
same,"Percent (%) inhibition, 0–5 min","mice [2]; early phase, listed as morphine",88.64%
same,"Percent (%) inhibition, 15–30 min",mice [2]; late phase,93.81 *** %
same,Time spent (licking) 15–30 min,mice [2]; late phase,4.83 ± 0.62 s
same,"Percent (%) inhibition, 15–30 min","mice [2]; late phase, listed as morphine",93.81%
"CC(=O)Oc1ccccc1C(=O)O [aspirin, acetylsalicylic acid]","Anti-inflammatory activity, carrageenan assay",albino mice [3]; first hour,52.77%
same,"Anti-inflammatory activity, carrageenan assay",albino mice [3]; fourth hour,61.43%
same,Mean inhibition of writhes,albino mice [4],73.01%
